PubChem BioAssay (NCI)
“And” between values parts separate entries of the source, which are not always exact repeats. Equal entries are not always repeated.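 Where inhibition never reached the appropriate level, the endpoint shown equals the highest concentration tested. Otherwise, values were interpolated linearly from a five-concentration, 48-hour dose response in 96-well plates. Here, GI50 denotes the concentration required for 50% inhibition of growth. The concentration for full growth arrest is given as TGI.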

How the values were obtained:
Test in all cases: NCI anticancer screen, dose series, 48 h
A498 renal = tested on: A498 renal
HOP-62 NSCLC = tested on: HOP-62 NSCLC
NCI-H23 lung = tested on: NCI-H23 lung
OVCAR-3 ovarian = tested on: OVCAR-3 ovarian
OVCAR-4 ovarian = tested on: OVCAR-4 ovarian
OVCAR-5 ovarian = tested on: OVCAR-5 ovarian
OVCAR-8 ovarian = tested on: OVCAR-8 ovarian
SK-MEL-2 melanoma = tested on: SK-MEL-2 melanoma
SNB-75 CNS = tested on: SNB-75 CNS
SR leukemia = tested on: SR leukemia
PC-3 prostate = tested on: PC-3 prostate

SMILES	TGI (A498 renal) [µM]	TGI (HOP-62 NSCLC) [µM]	TGI (NCI-H23 lung) [µM]	TGI (OVCAR-3 ovarian) [µM]	TGI (OVCAR-4 ovarian) [µM]	TGI (OVCAR-5 ovarian)	TGI (OVCAR-8 ovarian) [µM]	TGI (SK-MEL-2 melanoma) [µM]	TGI (SNB-75 CNS) [µM]	TGI (SR leukemia) [µM]	TGI (PC-3 prostate) [µM]	GI50 (SNB-75 CNS) [µM]
O=c1c([Se]c2coc3ccccc3c2=O)coc2ccccc12	33.6	21.1	29.6	32	32.6	30.3 µM	25.5	32.4	29.1	22.4		
C[C@@H]1C(O)CC[C@H](C)C12CC=CC2=O (some centres undefined)	> 100	> 100	> 100	> 100	> 100	> 100 µM		> 100		> 100	> 100	
COc1nc(=O)n(C2CC(N=[N+]=[N-])C(CO)O2)cc1C (centres undefined)		> 100	> 100	> 100	> 100	> 100 µM	> 100	> 100		> 100	> 100	
CC(C)(C)OC(=O)NC(Cc1ccc([N+](=O)[O-])cc1)C(=O)NC(CCCCNC(=O)OCc1ccccc1)C(=O)ON1C(=O)CCC1=O (centres undefined)	> 100	> 100	> 100	> 100	> 100	> 100 µM	> 100		> 100	> 100	> 100	
Cc1ccc2[nH]c3c(C)c4ccncc4c(C)c3c2c1	2.91	3.24	2.98	3.27	2.56	2.81 µM	2.25	2.63	3.17	4.25		
COc1ccc2c(c1)CC[C@@H]1C2CC[C@]2(C)C(=O)NC(=O)CC12 (some centres undefined)	> 100	> 100	> 100	> 100		> 100 µM	> 100	> 100				
CCN(CC)CCCNC(=O)Cc1ccccc1Nc1c(Cl)cccc1Cl		29.9	32.2	31.5	33.1	23.5 µM	31.9		21.8	26		
CC(=O)c1cccc(NC2C(N)C(NC(=O)N(C)C)(C(C)O)C(C)(O)C2(O)COC(=O)c2c(C)cccc2O)c1 (centres undefined)	< 0.001	0.0786		0.262		0.0457 µM and 0.186 µM	0.131	0.0186		> 100		< 0.001
Cc1ccc(/C=N/Nc2ncccn2)s1		> 100	> 100	> 100	> 100	> 100 µM	> 100	> 100	> 100		> 100	
COc1ccc(C2S/C(=C\c3ccc(OC)cc3OC)C(=O)N2NC(=O)Cc2ccccc2)cc1 (centres undefined)	> 100	> 100	> 100		> 100	> 100 µM	> 100	> 100	> 100	> 100		
Cc1nc(-c2nc([N+](=O)[O-])c([N+](=O)[O-])[nH]2)cs1	> 100	> 100	> 100	> 100	> 100	> 100 µM		> 100	> 100	> 100		
CC(=O)c1cn(-c2ccc(Cl)cc2)c(=O)c2c(N)n[nH]c12	> 100	> 100	> 100		> 100		> 100	> 100	> 100	> 100	> 100	
CC12ON=C(c3ccccc3)N1C=CN1C(c3ccccc3)=NOC12 (centres undefined)		> 100	> 100	> 100		> 100 µM	> 100		> 100		> 100	
COc1cc2c(cc1OC)C(Cl)C(c1cc(OC)c(OC)c(OC)c1)=C2Cl (centres undefined)	61.1		51.8	31.9			48.7	34.1	18.1			
CCCCCCCSCC(O)COC(c1ccccc1)(c1ccccc1)c1ccccc1 (centres undefined)	> 100	> 100	60.3	> 100	> 100	> 100 µM	> 100	52.5		85.4	> 100	
O=C(NC(Nc1ccc(F)c(Cl)c1)(C(F)(F)F)C(F)(F)F)C(C(F)(F)F)C(F)(F)F	> 100	> 100	67.1	> 100	88.9	78.1 µM	> 100	44.5		> 100	> 100	
O=C(/C=C/c1ccc(O)c(O)c1)OCCOC(=O)/C=C/c1ccc(O)c(O)c1	> 100	47.4	> 100	39	> 100	65.8 µM	> 100	45.8		58.9	86.5	
CSCCC(NC(c1ccccc1)c1ccccc1)[P+](=O)O (centres undefined)		> 100	> 100	> 100	> 100	> 100 µM	> 100	> 100	> 100	> 100	> 100	
CC1=C(C(=O)OC(C)C)C(c2ccccc2[N+](=O)[O-])C(C(=O)OC(CO[N+](=O)[O-])CO[N+](=O)[O-])=C(C)N1 (centres undefined)		11.2	39.2	76.7	22.4	> 100 µM	22	9.64	8.19	> 100	12.2	
CCN(CC)CCNc1ccc(C)c2sc3ccc(O)cc3c(=O)c12	4.27	1.66	14	4.4	6.12	9.3 µM	3.2	3.24	4.3	0.981		
CN1CCN(c2ccc3[nH]c(C4=C(O)c5nc(CO)n(C)c5C(=O)C4=O)nc3n2)CC1		> 100	> 100	> 100	> 100	> 100 µM	> 100	> 100	> 100		> 100	
CCC1(C)N=C(C(N)=O)c2ncn(N=C(C)C)c2N1 (centres undefined)	> 100	> 100	> 100	> 100	> 100	> 100 µM	> 100		> 100	> 100	> 100	
